Laboratory results reported in patent US4785090A, “Cephalosporin derivatives” (Meiji Seika Kaisha, Ltd., priority 1984, dated 1988).
≈ marks a conversion by molar mass, not a printed value. Read-outs that look alike come from different tables or passages of the source.

How the values were obtained:
[1] = tested on: Staphylococcus aureus 209PJC1; assay: Minimum Growth Inhibitory Concentration (MIC), Staphylococcus aureus 209PJC1; format: cell-based
From the text: (§1) Minimum Growth Inhibitory Concentration (MIC) mcg/ml
1. Staphylococcus aureus 209PJC1
as §1
2. Staphylococcus aureus 209 PJC1

Proteus vulgaris GN 76 = assay: Minimum Growth Inhibitory Concentration (MIC), Proteus vulgaris GN 76; format: cell-based; settings: Proteus vulgaris, GN76, read-out: Minimum Growth Inhibitory Concentration (MIC)
From the text: as §1
10. Proteus vulgaris GN 76
as §1
8. Proteus vulgaris GN 76

[2] = tested on: Staphylococcus aureus Smith; assay: Minimum Growth Inhibitory Concentration (MIC), Staphylococcus aureus Smith; format: cell-based; settings: Staphylococcus aureus, read-out: Minimum Growth Inhibitory Concentration (MIC)
From the text: as §1
1. Staphylococcus aureus Smith

[3] = tested on: Escherichia coli NIHJ JC2; assay: Minimum Growth Inhibitory Concentration (MIC), Escherichia coli NIHJ JC2; format: cell-based; settings: Escherichia coli, NIHJJC2, read-out: Minimum Growth Inhibitory Concentration (MIC)
From the text: as §1
3. Escherichia coli NIHJ JC2

Eshcerichia coli GN 206 = assay: Minimum Growth Inhibitory Concentration (MIC), Escherichia coli GN 206; format: cell-based
From the text: as §1
4. Eshcerichia coli GN 206

[4] = tested on: Klebsiella pneumoniae PCI 602; assay: Minimum Growth Inhibitory Concentration (MIC), Klebsiella pneumoniae PCI 602; format: cell-based; settings: Klebsiella pneumoniae, PCI602, read-out: Minimum Growth Inhibitory Concentration (MIC)
From the text: as §1
5. Klebsiella pneumoniae PCI 602

Proteus mirabilis GN 79 = assay: Minimum Growth Inhibitory Concentration (MIC), Proteus mirabilis GN 79; format: cell-based; settings: Proteus mirabilis, GN79, read-out: Minimum Growth Inhibitory Concentration (MIC)
From the text: as §1
6. Proteus mirabilis GN 79

[5] = tested on: Salmonella typhimurium LT2; assay: Minimum Growth Inhibitory Concentration (MIC), Salmonella typhimurium LT2; format: cell-based; settings: Salmonella enterica, TYPHIMURIUM, read-out: Minimum Growth Inhibitory Concentration (MIC)
From the text: as §1
7. Salmonella typhimurium LT2

Proteus rettgeri GN624 = assay: Minimum Growth Inhibitory Concentration (MIC), Proteus rettgeri GN624; format: cell-based; settings: Providencia rettgeri, GN624, read-out: Minimum Growth Inhibitory Concentration (MIC)
From the text: as §1
9. Proteus rettgeri GN624

[6] = tested on: Serratia marcescens No. 2; assay: Minimum Growth Inhibitory Concentration (MIC), Serratia marcescens No. 2; format: cell-based; settings: Serratia marcescens, NO.2, read-out: Minimum Growth Inhibitory Concentration (MIC)
From the text: as §1
10. Serratia marcescens No. 2

[7] = Serum concentration in mice after subcutaneous administration; format: in vivo; settings: mouse, sc, subcutaneous 25 mg/kg
Experimental: The experiment was conducted by using 3 mice (average body weight 20 g) in each group, subcutaneously administering 25 mg/kg of the sample, taking blood samples at predetermined intervals, separating the serum and measuring the sample concentration by an antibacterial activity test using Escherichia coli as a testing bactera.

[8] = tested on: Cephalosporinase-producing Escherichia coli GN206; assay: Treatment of experimental infection in mice (Escherichia coli GN206); format: in vivo; settings: intraperitoneal infection 1.25×10^6 CFU/mouse, subcutaneous one hour after infection, survival at one week
[9] = Toxicity test in mice (intravenous); format: in vivo; settings: mice, intravenous
From the text: Further, the compound of Example 28 was intravenously adminstered to 3 mice at a dose of 1 g/kg and also the compounds of Examples 34 and 51 were similarly administered at a dose of 3 g/kg respectively, and the number of survivor was examined after a week.

Bacillus subtilis = assay: Minimum Growth Inhibitory Concentration (MIC), Bacillus subtilis; format: cell-based; settings: Table 1, bacterium 2: Bacillus subtilis
From the text: as §1

Escherichia coli RGN 823 = assay: Minimum Growth Inhibitory Concentration (MIC), Escherichia coli RGN 823; format: cell-based; settings: RGN823; Table 1, bacterium 3: Escherichia coli RGN 823
From the text: as §1
3. Escherichia coli RGN 823

[10] = tested on: Klebsiella pneumoniae GN 69; assay: Minimum Growth Inhibitory Concentration (MIC), Klebsiella pneumoniae GN 69; format: cell-based; settings: GN69; Table 1, bacterium 4: Klebsiella pneumoniae GN 69
From the text: as §1
4. Klebsiella pneumoniae GN 69

Proteus vulgaris OX19 = assay: Minimum Growth Inhibitory Concentration (MIC), Proteus vulgaris OX19; format: cell-based; settings: Table 1, bacterium 5: Proteus vulgaris OX19
From the text: as §1
5. Proteus vulgaris OX19

[11] = tested on: Enterobacter cloacae G0006; assay: Minimum Growth Inhibitory Concentration (MIC), Enterobacter cloacae G0006; format: cell-based; settings: Table 1, bacterium 6: Enterobacter cloacae G0006
From the text: as §1
6. Enterobacter cloacae G0006

Serratia marcescens N 01 = assay: Minimum Growth Inhibitory Concentration (MIC), Serratia marcescens N 01; format: cell-based; settings: N01; Table 1, bacterium 7: Serratia marcescens N 01
From the text: as §1
7. Serratia marcescens N 01

[12] = tested on: Pseudomonas aeruginosa MB 3833; assay: Minimum Growth Inhibitory Concentration (MIC), Pseudomonas aeruginosa MB 3833; format: cell-based; settings: MB3833; Table 1, bacterium 8: Pseudomonas aeruginosa MB 3833
From the text: as §1
8. Pseudomonas aeruginosa MB 3833

[13] = Table 1, bacterium 1: Staphylococcus aureus 209PJC1, read-out: Minimum Growth Inhibitory Concentration (MIC)

SMILES | MIC [1, 13] [µg/mL] | MIC (Bacillus subtilis) [µg/mL] | MIC (Escherichia coli RGN 823) [µg/mL] | MIC [10] [µg/mL] | MIC (Proteus vulgaris OX19) [µg/mL] | MIC [11] [µg/mL] | MIC (Serratia marcescens N 01) [µg/mL] | MIC [12] [µg/mL] | further results
CCO/N=C(\C(=O)N[C@@H]1C(=O)N2C(C(=O)O)=C(CSc3cc[n+](CC(=O)O)cc3)CS[C@H]12)c1csc(N)n1.[Na+] | – | – | – | – | – | – | – | – | MIC ([1]; Staphylococcus aureus, 209PJC1, read-out: Minimum Growth Inhibitory Concentration (MIC)): 0.39 µg/mL; MIC (Proteus vulgaris GN 76): 0.1 µg/mL; MIC [2]: 0.78 µg/mL; MIC [3]: 0.78 µg/mL; MIC (Eshcerichia coli GN 206; GN206, read-out: Minimum Growth Inhibitory Concentration (MIC)): 0.39 µg/mL; MIC (Eshcerichia coli GN 206; GN206, read-out: minimum growth inhibitory concentration (MIC)): 0.39 µg/mL; MIC [4]: 0.05 µg/mL; MIC (Proteus mirabilis GN 79): 0.39 µg/mL; MIC [5]: 0.1 µg/mL; MIC (Proteus rettgeri GN624): 1.56 µg/mL; MIC [6]: 0.2 µg/mL; concentration at 0.5 h ([7]; 1/2 hr): 28500 ng/mL; concentration at 0.25 h ([7]; 1/4 hr): 31000 ng/mL; concentration at 5 min ([7]; 1/12 hr): 26000 ng/mL; concentration at 1 h ([7]; 1 hr): 4000 ng/mL; ED50 [8]: 0.065 mg/mouse; survival after a week ([9]; 1 g/kg): all the mice survived; LD50 at 168 h ([9]; mouse, in vivo, survivors after a week): ≥ 1000 mg/kg
CO/N=C(\C(=O)N[C@@H]1C(=O)N2C(C(=O)[O-])=C(CSc3ccc4c([n+]3C)CCC4)CS[C@H]12)c1csc(N)n1 [Example 1, (6R,7R)-7-[(Z)-2-(2-Aminothiazol-4-yl)-2-methoxyiminoacetamido]-3-[(5,6-cyclopenteno-1-methylpyridinium-2-yl)thiomethyl]-ceph-3-em-4-carboxylate] | 0.2 (≈ 0.357 µM) | 1.56 (≈ 2.78 µM) | ≤ 0.025 | ≤ 0.025 | 0.39 (≈ 0.696 µM) | 1.56 (≈ 2.78 µM) | 0.05 (≈ 0.0892 µM) | 12.5 (≈ 22.3 µM) | –

Second part, led by results:

MIC [1, 13] [µg/mL] | MIC (Bacillus subtilis) [µg/mL] | MIC (Escherichia coli RGN 823) [µg/mL] | MIC [10] [µg/mL] | MIC (Proteus vulgaris OX19) [µg/mL] | MIC [11] [µg/mL] | MIC (Serratia marcescens N 01) [µg/mL] | MIC [12] [µg/mL] | SMILES | further results
0.05 (≈ 0.0892 µM) | 1.56 (≈ 2.78 µM) | ≤ 0.025 | ≤ 0.025 | 0.1 (≈ 0.178 µM) | 0.78 (≈ 1.39 µM) | 0.05 (≈ 0.0892 µM) | 6.25 (≈ 11.1 µM) | CO/N=C(\C(=O)N[C@@H]1C(=O)N2C(C(=O)[O-])=C(CSc3cc[n+](C)c4c3CCC4)CS[C@H]12)c1csc(N)n1 [Example 2, (6R,7R)-7-[(Z)-2-(2-Aminothiazol-4-yl)-2-methoxyiminoacetamido]-3-[(2,3-cyclopenteno-1-methylpyridinium-4-yl)thiomethyl]-ceph-3-em-4-carboxylate] | –
0.1 (≈ 0.174 µM) | 0.2 (≈ 0.348 µM) | 0.1 (≈ 0.174 µM) | 0.1 (≈ 0.174 µM) | 0.2 (≈ 0.348 µM) | 0.78 (≈ 1.36 µM) | 0.1 (≈ 0.174 µM) | 6.25 (≈ 10.9 µM) | CO/N=C(\C(=O)N[C@@H]1C(=O)N2C(C(=O)[O-])=C(CSc3cc(C)[n+](C)c4c3CCC4)CS[C@H]12)c1csc(N)n1 [Example 4, (6R,7R)-7-[(Z)-2-(2-Aminothiazol-4-yl)-2-methoxyiminoacetamido]-3-[(6-methyl-2,3-cyclopenteno-1-methylpyridinium-4-yl)thiomethyl]-ceph-3-em-4-carboxylate] | –
3.13 (≈ 4.73 µM) | 12.5 (≈ 18.9 µM) | 1.56 (≈ 2.36 µM) | 0.78 (≈ 1.18 µM) | 1.56 (≈ 2.36 µM) | 6.25 (≈ 9.44 µM) | 1.56 (≈ 2.36 µM) | 50 (≈ 75.6 µM) | Cc1cc(SCC2=C(C(=O)[O-])N3C(=O)[C@@H](NC(=O)/C(=N\OC[C@@H](N)C(=O)O)c4csc(N)n4)[C@H]3SC2)c2c([n+]1C)CCCC2 [Example 12, (6R,7R)-7-[(Z)-2-(2-Aminothiazol-4-yl)-2-(2D-2-amino-2-carboxyethoxyimino)acetamido]-3-[(6-methyl-2,3-cyclohexeno-1-methylpyridinium-4-yl)thiomethyl]-ceph-3-em-4-carboxylate] | –
